The test system of this assay is membrane potential of mitochondria. Conditions: in the presence of molecular hydrogen.

Take `[HH]` [hydrogen]: the “signal of TMRE (membrane potential) reduced” value is recorded as “about 10%”.
